Measurements published in ChEMBL document CHEMBL1146902, “Antifungal anthraquinones from Saprosma fragrans” (2006).
In brackets after ≈: the same amount, converted by molar mass.

Columns and labels:
Trichophyton benhamiae = experiment: Antifungal activity against Trichophyton mentagrophytes; type: functional, Arthroderma benhamiae
Candida albicans = experiment: Antifungal activity against Candida albicans; type: functional
Aspergillus fumigatus = experiment: Antifungal activity against Aspergillus fumigatus; type: functional
Cryptococcus neoformans = experiment: Antifungal activity against Cryptococcus neoformans; type: functional
Sporothrix schenckii = experiment: Antifungal activity against Sporothrix schenckii; type: functional

MIC (Trichophyton benhamiae)	MIC (Candida albicans)	MIC (Aspergillus fumigatus)	MIC (Cryptococcus neoformans)	MIC (Sporothrix schenckii)	Structure (SMILES)
0.39 µg/mL (≈ 1.13 µM)	3.1 µg/mL (≈ 8.99 µM)	1.56 µg/mL (≈ 4.52 µM)	0.09 µg/mL (≈ 0.261 µM)	1.56 µg/mL (≈ 4.52 µM)	Clc1ccccc1C(c1ccccc1)(c1ccccc1)n1ccnc1 [CLOTRIMAZOLE]
1.56 µg/mL (≈ 5.53 µM)	50 µg/mL (≈ 177 µM)	50 µg/mL (≈ 177 µM)	12.5 µg/mL (≈ 44.3 µM)	6.25 µg/mL (≈ 22.1 µM)	COc1c(C=O)c(O)cc2c1C(=O)c1ccccc1C2=O [DAMNACANTHAL]
12.5 µg/mL (≈ 41.9 µM)	50 µg/mL (≈ 168 µM)	> 100 µg/mL	50 µg/mL (≈ 168 µM)	25 µg/mL (≈ 83.8 µM)	COc1c(C=O)c(O)c(O)c2c1C(=O)c1ccccc1C2=O
